The source of these data is patent US20060173022A1, “Heterocyclic amides, method for the production thereof, substances containing said heterocyclic amides, and use thereof as pesticides” (Bayer CropScience GmbH, priority 2003, published 2006).

The structures appear in SMILES notation.

A word on the melting point: it is the temperature of the solid-liquid transition. With `CO/N=C/CCNC(=O)c1cnccc1C(F)(F)F` [Example I, N-(4-Trifluoromethylnicotinoyl)-3-aminopropionaldehyde O-methyl oxime], the melting point is 80 to 82 °C.
